{
  "source": "paper PMC8442742",
  "about": "(Pain, 2021)",
  "key": {"[1]": {"tested_on": "NCI-H69 human lung cancer xenograft", "test": "NCI-H69 lung cancer xenograft, tumor volume", "format": "in vivo, BALB/c nude mice", "conditions": "cisplatin 4 mg/kg i.p. every 4 days, 6 doses"}, "synaptosomes": {"tested_on": "synaptosomes", "conditions": "two cycles of cisplatin"}, "DRG transcriptome": {"tested_on": "DRG transcriptome", "test": "RNA sequencing of DRG", "format": "in vivo, mice", "conditions": "cisplatin alone vs controls, one cycle"}, "p-c-Jun in the DRGs": {"tested_on": "p-c-Jun in the DRGs", "test": "p-c-Jun in DRG after one treatment cycle", "format": "in vivo, mice", "conditions": "one cycle of cisplatin 2.3 mg/kg i.p. for 5 days"}, "C57Bl/6 mice [2]": {"tested_on": "C57Bl/6 mice", "test": "Puzzle box test", "format": "in vivo", "conditions": "two cycles of cisplatin; cardboard plug, trials 8–11"}, "C57Bl/6 mice [3]": {"tested_on": "C57Bl/6 mice", "test": "Y maze spontaneous alternation test", "format": "in vivo", "conditions": "two cycles of cisplatin"}, "[4]": {"tested_on": "intraepidermal nerve fibers", "test": "IENF density in hind paw skin", "format": "in vivo, mice", "conditions": "two cycles of cisplatin 2.3 mg/kg i.p."}},
  "data": [
    {"smiles": "N.N.[Cl][Pt][Cl]", "note": "[cisplatin]", "values": [
      {"measurement": "tumor growth", "setting": "[1]", "value": "significantly reduced tumor growth"},
      {"measurement": "synaptosomal MRC and SRC", "setting": "synaptosomes", "value": "reduced maximal respiratory capacity and spare respiratory capacity"},
      {"measurement": "number of genes with changed expression", "setting": "DRG transcriptome", "value": 1337},
      {"measurement": "p-c-Jun in DRG", "setting": "p-c-Jun in the DRGs", "value": "significantly, but modestly, induced p-c-Jun"},
      {"measurement": "time to enter the goal box with difficult obstacle", "setting": "C57Bl/6 mice [2]", "value": "required significantly more time to enter the goal box"},
      {"measurement": "Y maze alternation rate", "setting": "C57Bl/6 mice [3]", "value": "significant decrease in the alternation rate"},
      {"measurement": "IENF density in the hind paws", "setting": "[4]", "value": "reduced IENF density"}
    ]}
  ]
}
